Assay results from US20110077270A1, “Compositions and Methods for Treating Ocular Inflammation with Lower Risk of Increased Intraocular Pressure” (priority 2009, published 2011).
“And” between values parts separate entries of the source, which are not always exact repeats. Identical values can stand only once.

Columns and labels:
[1] = tested on: monkey TM cells; experiment: Cell metabolic activity (resazurin reduction) assay in monkey TM cells; type: cell-based, rhesus monkeys (Macaca mulatta); settings: 3 to 300 nM, end of treatment period; results not shown
Method: A modification of previously described methods^40 was employed to evaluate cell metabolic activity, an index of cell viability. After collection of CM samples, cells were briefly rinsed in modified Hanks balanced salt solution containing Ca^++ and Mg^++ (“MHBSS”), and then 0.0025% (w/v) resazurin (Sigma) in MHBSS was added to sample wells. Plates were incubated (37° C., 5% CO2, 95% humidity) for 90 minutes, after which fluorescence (Excitation 560 nm, Emission 590 nm) was read (Victor 3V Multilabel Counter, Wallac, Turku, Finland). As a positive control for decreased cellular metabolic reduction of resazurin, in each plate an additional well of vehicle control-treated cells was preincubated with 0.06% hydrogen peroxide (Fisher, Atlanta, Ga.) in MHBSS.

[2] = tested on: rabbit paracentesis model; experiment: Clinical evaluation (slit lamp clinical score), rabbit paracentesis model; type: in vivo; parameters: key to Clinical Score −180 min / Clinical Score −5 min / Clinical Score +115 min: 0: normal; 1: discrete dilatation of iris and conjunctival vessels; 2: moderate dilatation of iris and conjunctival vessels; 3: intense iridal hyperemia with flare in the anterior chamber; 4: intense iridal hyperemia with flare in the anterior chamber and presence of fibrinous exudates; settings: for Clinical Score −5 min: 5 min before first paracentesis; for Clinical Score −5 min / Clinical Score +115 min / Clinical Score −180 min: individual eye; for Clinical Score +115 min: 5 min before second paracentesis; for Clinical Score −180 min: basal
[3] = tested on: protein concentration in the aqueous humor; experiment: Protein measurement in aqueous humor, rabbit paracentesis model; type: in vivo; settings: for Protein level in aqueous humor, Mean / Protein level in aqueous humor: second paracentesis; for Protein level in aqueous humor, Mean: group mean; for Protein level in aqueous humor: individual eye
Method: (§1) Each rabbit was placed in a restraint device and tagged with the alphanumeric code. The formulations were instilled (50 μl) into the conjunctival sac of both eyes 180, 120, 90 and 30 min before the first paracentesis; then 15, 30, 90 min after the first paracentesis. To perform the first paracentesis the animals were anaesthetized by intravenous injection of 5 mg/kg Zoletil® (Virbac; 2.5 mg/kg tiletamine HCl and 2.5 mg/kg zolazepam HCl) and one drop of local anesthetic (Novesina®, Novartis) was administered to the eye. Anterior chamber paracentesis was performed with a 26 G needle attached to a tuberculin syringe; the needle was introduced into the anterior chamber through the cornea, taking care not to damage the tissues. Two hours after the first paracentesis, the animals were sacrificed with 0.4 ml Tanax® (Intervet International B.V.) and the second paracentesis was performed. About 100 μl of aqueous humor were removed at the second paracentesis. Aqueous humor was immediately split in four aliquots and stored at −80° C. until analysis. Then both eyes were enucleated and the iris-ciliary body was carefully excised, placed in polypropylene tubes, and stored at −80° C. until analysis.
For protein concentration determination in the aqueous humor we used the Protein Quantification Kit (Fluka; Cat. No. 77371; Lot. No. 1303129). Five microliters of aqueous humor were diluted to 100 μl with water. Twenty microliters of samples and of standards were load into a 96-well plate and recorded in a plate layout. Samples were treated following the assay procedure described in the kit. A microplate reader (GDV, Italy; model DV 990 B/V6) set at 670 nm was used for making the calibration and analyzing the samples.

[4] = tested on: myocilin mRNA in monkey TM cells; experiment: Myocilin mRNA expression in monkey TM cells (qRT-PCR); type: cell-based, rhesus monkeys (Macaca mulatta); settings: for EC50: expression of myocilin mRNA, weighted averages, two dose-response studies each using two monkey TM cell strains
Method: For each study, up to nine TM cell strains, each derived from an individual monkey, were tested separately. Cells were thawed and seeded into 12- or 48-well clusters (Falcon, BD Biosciences; 150,000 and 30,000 cells/well, respectively) in proliferation medium. When cells were 75% to 90% confluent proliferation medium was replaced by a 5:4 mixture of HESFM and Dulbecco's MEM, respectively, supplemented with 10% FBS, with added taurine, ascorbic acid phosphate, glutathione, and antibiotic as for proliferation medium (above), and with 2.72 g/L glucose and 1.72 g/L fructose. At confluence, the medium was changed to Dulbecco's MEM, containing 10% FBS^40, ascorbic acid phosphate, antibiotic, 2.72 g/L glucose and 1.72 g/L fructose. Cells were maintained as stable, confluent monolayers in this latter medium for 4 to 7 days before experimental treatments commenced.
After quantification of purified total RNA (Quant-iT RNA Assay kit, Molecular Probes, Eugene, Oreg.), equivalent amounts of this RNA were apportioned to generate first-strand cDNAs for each treatment sample, using random primers, (Affinity Script, Stratagene, La Jolla, Calif.). Oligonucleotide myocilin primers, designed based on the cynomolgus MYOC gene, and fluorescent Taqman probe (Applied Biosystems, Foster City, Calif.) were used for PCR amplification. Equal amounts of total RNA-equivalent mass (approximate range […]) reactant cDNA were added to the PCR Master Mix (Stratagene) and myocilin primers/Taqman probe. Amplification was performed in a thermocycler (Mx3005P, Stratagene), with an initial denaturation step at 95° C. for 10 min, followed by 40 cycles of 95° C. for 15 sec and 60° C. for 1 min for extension. Every run included standard controls (i.e., either without reverse transcriptase or lacking template). Relative quantities of myocilin mRNA abundance were determined using differences in threshold cycles (“Ct”) between vehicle control and drug treatments. Each sample was analyzed in triplicate wells, and the corresponding values averaged for further quantitative analysis. Myocilin mRNA abundance, expressed in proportion to vehicle control-treated samples, was calculated using the Mx3005P software.
Data underwent Box-Cox transformations for one- or two-way analysis of variance (ANOVA), followed by the Tukey-Kramer test, using JMP software (SAS, Cary, N.C.). The specific transformations used for analyses are mentioned in the figure legends. For each set of triplicate samples from the individual monkey TM cell strains tested, Western blot densitometry values for myocilin protein detected in CM (as geometric means), and relative abundance of myocilin mRNA (as geometric means), were plotted as a function of drug concentrations. P-values less than 0.05 were considered statistically significant. […]

[5] = tested on: leukocytes (PMN) in aqueous humor; experiment: Leukocytes (PMN) measurement in aqueous humor, rabbit paracentesis model; type: in vivo; settings: second paracentesis; for PMN numbers in aqueous humor, Mean: group mean; for PMN numbers in aqueous humor: individual eye
Method: as §1
For the determination of the number of leukocytes we used a haemocytometer (Improved Neubauer Chamber; Bright-line, Hausser Scientific) and a Polyvar 2 microscope (Reichert-Jung).

[6] = 0.1% topical formulation, listed as BOL
[7] = 0.1% topical formulation, +115 min
[8] = 0.1% topical formulation, −5 min
[9] = 0.1% topical formulation, −180 min (basal)
[10] = 0.5% topical formulation, listed as BOL
[11] = 0.5% topical formulation, +115 min
[12] = 1% topical formulation, listed as BOL

In the case of `Cc1ccc2c(NCC(O)(CC(C)(C)c3cc(F)cc4c3OCC4)C(F)(F)F)cccc2n1` (centres unmarked) [BOL-303242-X], the “Cell viability compared to vehicle controls (resazurin reduction)” value [1] is reported as “nor did any drug treatments result in a loss of cell viability”, the “Clinical Score −5 min” value ([2]; 0.1% topical formulation) is reported as 0 and the “Clinical Score +115 min” value [2, 6] is reported as 2 (6×) and 3 (2×). For the same compound, the “Percentage of eyes with clinical score 2” value [2, 7] was 75%, the “Percentage of eyes with clinical score 3” value [2, 7] was 25% and the “Clinical Score −180 min” value ([2]; 0.1% topical formulation) was 0. For the same compound, the “Percentage of eyes with clinical score 0” value [2, 8] was 100%, the “Percentage of eyes with clinical score 0” value [2, 9] was 100% and the “Clinical Score −5 min” value ([2]; 0.5% topical formulation) was 0. The “Clinical Score +115 min” value [2, 10] was 2 (5×) and 1 (3×), the “Percentage of eyes with clinical score 1” value [2, 11] was 37.5% and the “Percentage of eyes with clinical score 2” value [2, 11] was 62.5%. The “Clinical Score −180 min” value ([2]; 0.5% topical formulation) was 0, the “Percentage of eyes with clinical score 0” value ([2]; 0.5% topical formulation, −5 min) was 100% and the “Percentage of eyes with clinical score 0” value ([2]; 0.5% topical formulation, −180 min (basal)) was 100%. For the same compound, the “Clinical Score −5 min” value ([2]; 1% topical formulation) was 0, the “Clinical Score +115 min” value ([2]; 1% topical formulation) was 2 and the “Percentage of eyes with clinical score 2” value ([2]; 1% topical formulation, +115 min) was 100%. For the same compound, the “Clinical Score −180 min” value ([2]; 1% topical formulation) was 0, the “Percentage of eyes with clinical score 0” value ([2]; 1% topical formulation, −5 min) was 100% and the “Percentage of eyes with clinical score 0” value ([2]; 1% topical formulation, −180 min (basal)) was 100%. For the same compound, the “Protein level in aqueous humor, Mean” value ([3]; 0.1% topical formulation) was 33.667 mg/mL, the “Protein level in aqueous humor” value [3, 6] was 34.87 mg/mL and 34.41 mg/mL and 31.14 mg/mL and 22.82 mg/mL and 29.46 mg/mL and 31.69 mg/mL and 35.70 mg/mL and 49.25 mg/mL and the “Protein, p vs CTR” value ([3]; 0.5% topical formulation) was < 0.05. For the same compound, the “Protein level in aqueous humor, Mean” value ([3]; 0.5% topical formulation) was 28.844 mg/mL, the “Protein level in aqueous humor” value [3, 10] was 33.98 mg/mL and 33.65 mg/mL and 19.99 mg/mL and 27.11 mg/mL and 19.72 mg/mL and 36.35 mg/mL and 27.71 mg/mL and 32.24 mg/mL and the “Protein level in aqueous humor, Mean” value ([3]; 1% topical formulation) was 21.435 mg/mL. The “Protein level in aqueous humor” value [3, 12] was 20.99 mg/mL and 21.48 mg/mL and 15.11 mg/mL and 20.28 mg/mL and 20.94 mg/mL and 21.89 mg/mL and 20.03 mg/mL and 30.76 mg/mL, the “Myocilin mRNA abundance compared with DEX” value ([4]; 3 to 300 nM) was “significantly lower mRNA abundance values at all doses compared with DEX” and the Emax at 0.3 µM ([4]; Primates, read-out: Maximal efficacy for myocilin mRNA expression, relative to DEX, 300 nM, single monkey TM cell strain (FIG. 5)) was ~67%. The EC50 ([4]; Primates) was 20.8 ± 2.74 nM, the “PMN numbers in aqueous humor, Mean” value ([5]; 0.1% topical formulation) was 28.333 number/μl and the “PMN numbers in aqueous humor” value [5, 6] was 20 number/μl (4×) and 40 number/μl and 50 number/μl. For the same compound, the “PMN numbers in aqueous humor, Mean” value ([5]; 0.5% topical formulation) was 21.250 number/μl, the “PMN numbers in aqueous humor” value [5, 10] was 40 number/μl (2×) and 20 number/μl (3×) and 10 number/μl (3×) and the “PMN numbers in aqueous humor, Mean” value ([5]; 1% topical formulation) was 28.750 number/μl. The “PMN numbers in aqueous humor” value [5, 12] was 30 number/μl (3×) and 20 number/μl (3×) and 40 number/μl (2×).
`C[C@@H]1C[C@H]2[C@@H]3CCC4=CC(=O)C=C[C@]4(C)[C@@]3(F)[C@@H](O)C[C@]2(C)[C@@]1(O)C(=O)CO` [Dex, dexamethasone, reference compound] was tested, and the “Cell viability compared to vehicle controls (resazurin reduction)” value [1] was “nor did any drug treatments result in a loss of cell viability”, the “Clinical Score −5 min” value ([2]; 0.1% topical formulation) was 0 (6×) and 1 (2×) and the “Clinical Score +115 min” value ([2]; 0.1% topical formulation) was 1 (6×) and 3 (2×). The “Percentage of eyes with clinical score 1” value [2, 7] was 75%, the “Percentage of eyes with clinical score 3” value [2, 7] was 25% and the “Clinical Score −180 min” value ([2]; 0.1% topical formulation) was 0. The “Percentage of eyes with clinical score 0” value [2, 8] was 75%, the “Percentage of eyes with clinical score 1” value [2, 8] was 25% and the “Percentage of eyes with clinical score 0” value [2, 9] was 100%. The “Protein level in aqueous humor, Mean” value ([3]; 0.1% topical formulation) was 33.457 mg/mL, the “Protein level in aqueous humor” value ([3]; 0.1% topical formulation) was 31.31 mg/mL and 31.81 mg/mL and 35.95 mg/mL and 37.15 mg/mL and 32.12 mg/mL and 32.40 mg/mL and the EC50 ([4]; Primates) was 14.7 ± 1.27 nM. For the same compound, the “PMN numbers in aqueous humor” value ([5]; 0.1% topical formulation) was 20 number/μl (3×) and 50 number/μl and 40 number/μl and 30 number/μl.
